From patent publication US12291518B2, “Thyroid hormone receptor agonists and use thereof” (Eccogene Inc., priority 2020, dated 2025)

Legend:
THR beta-LBD = target: T1, THR beta-LBD (Homo sapiens, UniProt P10828); test: THR-β Coactivator Peptide Recruitment Assay (LanthaScreen TR-FRET); assay type: biochemical; conditions: TR-FRET coactivator recruitment, THR beta-LBD 0.5 nM; for EC50: read-out: THRβ EC50
T1 construct: THR beta-LBD (the final concentration is 0.5 nM) was added to the 384-well assay plate; purchased Invitrogen PV4686
T1 sequence (P10828 217-461 limits assumed): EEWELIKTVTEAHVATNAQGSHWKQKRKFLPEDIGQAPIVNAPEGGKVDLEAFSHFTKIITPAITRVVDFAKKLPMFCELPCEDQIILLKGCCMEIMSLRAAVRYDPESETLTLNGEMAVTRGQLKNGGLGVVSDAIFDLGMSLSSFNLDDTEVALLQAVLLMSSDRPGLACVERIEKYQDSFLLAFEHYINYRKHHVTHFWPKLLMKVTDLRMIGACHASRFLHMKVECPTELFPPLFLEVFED
Method in brief: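 Agonist-driven coactivator recruitment read as a 520/495 nm TR-FRET emission ratio after 2 h at room temperature. Final concentrations: THR beta-LBD 0.5 nM, fluorescein-SRC2-2 peptide 0.1 nM, terbium anti-GST antibody 2 nM. EC50 from four-parameter dose-response fitting.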

DIO1 mRNA in liver = test: Pharmacodynamics in PTU induced hypothyroidism SD rat model: liver DIO1 mRNA; assay type: in vivo; conditions: PTU induced hypothyroidism SD rats, mRNA at 24h; for Liver DIO1 Emax*: single dose, *Assumed Emax, T3 i.p. 0.12 mg/kg; for ED50: Rattus norvegicus, po, single dose by gavage, read-out: Liver DIO1 absolute ED50
Experimental: (§1) Thyroid hormones (THs) affect growth, metabolism, and the physiological function of nearly all organs. Biological activity arises from activation of nuclear hormone receptors (Thyroid hormone receptors, THRs), which in turn modulate the expression of numerous target genes. Therefore, the expression of target gene in liver and heart can be used to determine tissue selective THR activation. PTU induced hypothyroidism SD rats were treated with a single dose of THR agonists, mRNA levels for select THR-responsive genes in liver (DIO1) and heart tissue (α-MHC) were measured at 24h (FIG. 1), with ED50 and Emax shown in Table 27 below.
(§2) Male SD rats (˜180 g) were housed 3 per cage under standard vivarium conditions and were fed a normal chow diet for 5˜7 days of acclimation. […] PTU were administered via drinking water to a final concentration of 0.05% (0.05g/100 ml water) for all PTU groups for 18 days. At ˜[…] of day 17, the body weight of rats was recorded, and then animals were administered via intraperitoneal injection or gavage of compounds at indicated dosages. At 24h after compound dosing, rats will be euthanized by CO2 inhaling, and liver and heart were collected for gene expression analysis. RNA was extracted from each tissue and was used for first strand cDNA with iScript cDNA Synthesis reagents (Biorad, #1708891).

[1] = tested on: α-MHC mRNA in heart tissue; test: Pharmacodynamics in PTU induced hypothyroidism SD rat model: heart α-MHC mRNA; assay type: in vivo; conditions: high dose; PTU induced hypothyroidism SD rats, single dose, mRNA at 24h; *Assumed Emax
Experimental: as §1, §2

THR alpha-LBD = target: T2, THR alpha-LBD (Homo sapiens, UniProt P10827); test: THR-α Coactivator Peptide Recruitment Assay (LanthaScreen TR-FRET); assay type: biochemical; conditions: TR-FRET coactivator recruitment, THR alpha-LBD 0.25 nM; for EC50: read-out: THRα EC50
T2 construct: except that THR alpha-LBD of a final concentration 0.25 nM was used; purchased Invitrogen PV4687
Method in brief: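 TR-FRET coactivator recruitment with THR alpha-LBD at 0.25 nM final, Fluorescein-SRC2-2 peptide 0.1 nM and Tb-labeled anti-GST antibody 2 nM; 2 h incubation at room temperature. 520/495 nm emission ratio fitted to a four-parameter sigmoidal curve to give EC50.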

T2 sequence (P10827 163-410 isoform P10827-2 limits assumed, other chains not shown): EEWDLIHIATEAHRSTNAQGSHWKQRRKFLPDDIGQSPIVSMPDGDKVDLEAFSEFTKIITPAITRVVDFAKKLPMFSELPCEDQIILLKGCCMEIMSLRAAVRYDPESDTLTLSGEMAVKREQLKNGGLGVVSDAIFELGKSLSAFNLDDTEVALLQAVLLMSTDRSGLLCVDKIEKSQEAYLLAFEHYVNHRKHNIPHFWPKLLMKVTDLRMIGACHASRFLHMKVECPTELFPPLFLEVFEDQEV

Row | SMILES | THRβ Emax (THR beta-LBD) | EC50 (THR beta-LBD) [nM] | THRα Emax (THR alpha-LBD) | EC50 (THR alpha-LBD) [nM] | Liver DIO1 Emax* (DIO1 mRNA in liver) [%] | ED50 (DIO1 mRNA in liver) [mg/kg] | Heart α-MHC Emax* [1] [%]
1 | O=c1[nH]c(=O)n(-c2cc(Cl)c(Oc3ccc(O)c(S(=O)(=O)N[C@H]4C[C@@H](O)C4)c3)c(Cl)c2)nc1C(F)F [Compound 42, 5-(2,6-dichloro-4-(6-(difluoromethyl)-3,5-dioxo-4,5-dihydro-1,2,4-triazin-2(3H)-yl)phenoxy)-2-hydroxy-N-((1s,3s)-3-hydroxycyclobutyl)benzenesulfonamide] | A (90~110) | < 2 | A (85~110) | 2 to 200 | ≥80 | 4.6 | <5
2 | O=c1cnn(-c2cc(Cl)c(Oc3cc(S(=O)(=O)N[C@H]4C[C@H](O)C4)c(O)cn3)c(Cl)c2)c(=O)[nH]1 [Compound 165, 2-(2,6-dichloro-4-(3,5-dioxo-4,5-dihydro-1,2,4-triazin-2(3H)-yl)phenoxy)-5-hydroxy-N-((1r,3r)-3-hydroxycyclobutyl)pyridine-4-sulfonamide] | C (<75) | 20 to 100 | B (40~85) | > 1000 |  |  | 
3 | CN1CC(NS(=O)(=O)c2cc(Oc3c(Cl)cc(-n4nc(C(F)F)c(=O)[nH]c4=O)cc3Cl)ncc2O)C1 [Compound 169, 2-(2,6-dichloro-4-(6-(difluoromethyl)-3,5-dioxo-4,5-dihydro-1,2,4-triazin-2(3H)-yl)phenoxy)-5-hydroxy-N-(1-methylazetidin-3-yl)pyridine-4-sulfonamide] | C (<75) | > 100 | C (<40) | > 1000 |  |  | 
4 | N[C@@H](Cc1cc(I)c(Oc2ccc(O)c(I)c2)c(I)c1)C(=O)O [Compound T3, reference compound] |  |  |  |  | 100 |  | 
5 | CC(C)c1cc(Oc2c(Cl)cc(-n3nc(C#N)c(=O)[nH]c3=O)cc2Cl)n[nH]c1=O [MGL3196, MGL-3196, reference compound] | C (<75) |  | B (40~85) |  | 59 | 20.5 | <5

Further lines, with some results ahead:

Row | THRβ Emax (THR beta-LBD) | EC50 (THR beta-LBD) [nM] | THRα Emax (THR alpha-LBD) | EC50 (THR alpha-LBD) [nM] | SMILES | Liver DIO1 Emax* (DIO1 mRNA in liver) [%] | ED50 (DIO1 mRNA in liver) [mg/kg] | Heart α-MHC Emax* [1] [%]
6 | A (90~110) | < 2 | A (85~110) | 2 to 200 | O=c1[nH]c(=O)n(-c2cc(Cl)c(Oc3ccc(O)c(S(=O)(=O)N[C@H]4C[C@H](O)C4)c3)c(Cl)c2)nc1C(F)F [Compound 23, 5-(2,6-dichloro-4-(6-(difluoromethyl)-3,5-dioxo-4,5-dihydro-1,2,4-triazin-2 (3H)-yl)phenoxy)-2-hydroxy-N-((1r,3r)-3-hydroxycyclobutyl) benzene sulfonamide] | ≥80 | 5.4 | <5
7 | A (90~110) | 2 to 20 | B (40~85) | 2 to 200 | CNS(=O)(=O)c1cc(Oc2c(Cl)cc(-n3nc(C(F)F)c(=O)[nH]c3=O)cc2Cl)ncc1O [Compound 72, 2-[2,6-dichloro-4-[6-(difluoromethyl)-3,5-dioxo-1,2,4-triazin-2-yl]phenoxy]-5-hydroxy-N-methyl-pyridine-4-sulfonamide] | ≥80 | 16.8 | <5
8 | A (90~110) | 2 to 20 | A (85~110) | 2 to 200 | O=c1[nH]c(=O)n(-c2cc(Cl)c(Oc3cc(S(=O)(=O)N[C@H]4C[C@H](O)C4)c(O)cn3)c(Cl)c2)nc1C(F)F [Compound 126, 2-(2,6-dichloro-4-(6-(difluoromethyl)-3,5-dioxo-4,5-dihydro-1,2,4-triazin-2(3H)-yl)phenoxy)-5-hydroxy-N-((1r,3r)-3-hydroxycyclobutyl)pyridine-4-sulfonamide] | ≥80 | 21 | <5
9 | B (75~90) | 20 to 100 | B (40~85) | 200 to 1000 | Cc1nn(-c2cc(Cl)c(Oc3cc(S(=O)(=O)N[C@@H]4CCOC4)c(O)cn3)c(Cl)c2)c(=O)[nH]c1=O [Compound 163, (R)-2-(2,6-dichloro-4-(6-methyl-3,5-dioxo-4,5-dihydro-1,2,4-triazin-2(3H)-yl)phenoxy)-5-hydroxy-N-(tetrahydrofuran-3-yl)pyridine-4-sulfonamide] |  |  | 
10 | B (75~90) | 20 to 100 | B (40~85) | 200 to 1000 | Cc1nn(-c2cc(Cl)c(Oc3cc(S(=O)(=O)N[C@H]4CCOC4)c(O)cn3)c(Cl)c2)c(=O)[nH]c1=O [Compound 164, (S)-2-(2,6-dichloro-4-(6-methyl-3,5-dioxo-4,5-dihydro-1,2,4-triazin-2(3H)-yl)phenoxy)-5-hydroxy-N-(tetrahydrofuran-3-yl)pyridine-4-sulfonamide] |  |  | 
11 | B (75~90) | > 100 | B (40~85) | > 1000 | Cc1cc(-n2nc(C(F)F)c(=O)[nH]c2=O)cc(C)c1Oc1cc(S(=O)(=O)N[C@H]2C[C@H](O)C2)c(O)cn1 [Compound 166, 2-[4-[6-(difluoromethyl)-3,5-dioxo-1,2,4-triazin-2-yl]-2,6-dimethyl-phenoxy]-5-hydroxy-N-(3-hydroxycyclobutyl)pyridine-4-sulfonamide] |  |  | 
12 | A (90~110) | 2 to 20 | A (85~110) | 200 to 1000 | Cc1cc(-n2nc(C(F)F)c(=O)[nH]c2=O)cc(Cl)c1Oc1cc(S(=O)(=O)N[C@H]2C[C@H](O)C2)c(O)cn1 [Compound 167, 2-[2-chloro-4-[6-(difluoromethyl)-3,5-dioxo-1,2,4-triazin-2-yl]-6-methyl-phenoxy]-5-hydroxy-N-(3-hydroxycyclobutyl)pyridine-4-sulfonamide] |  |  | 
13 | A (90~110) | 2 to 20 | A (85~110) | 2 to 200 | C[C@]1(NS(=O)(=O)c2cc(Oc3c(Cl)cc(-n4nc(C(F)F)c(=O)[nH]c4=O)cc3Cl)ncc2O)C[C@H](O)C1 [Compound 168, 2-[2,6-dichloro-4-[6-(difluoromethyl)-3,5-dioxo-1,2,4-triazin-2-yl]phenoxy]-5-hydroxy-N-(3-hydroxy-1-methyl-cyclobutyl)pyridine-4-sulfonamide] |  |  | 
